Laboratory results as given in PubChem BioAssay AID248 (DTP/NCI, 2004).
Values joined by “and” are separate entries in the source; they are usually repeats but may differ in a detail not shown here. Identical values can stand only once. Toxic doses and inconclusive results are not listed. Rule as the data show it: active = T/C of 150% or more; inactive = T/C below 125%.

Tested on: L1210 leukemia ip in BDF1 mice, survival T/C
Test: NCI In Vivo Anticancer Drug Screen. Data for tumor model L1210 Leukemia (intraperitoneal) in B6D2F1 (BDF1) mice
Conditions: higher = longer survival
Outline: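 Transplantable tumor model; survival measured in treated vs vehicle control mice. Value = treated/control.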

Measured: T/C

O=P1(N(CCCl)CCCl)NCCCO1 (configuration not stated)
inactive: endpoint: mean survival time, dose: 0.9 mg/kg/injection, schedule: Q01DX009 (ip), vehicle: saline 99 % of control and 100 % of control | endpoint: mean survival time, dose: 1.0 mg/kg/injection, schedule: Q01DX Z (ip), vehicle: methylcellulose (MC) 93 % of control | endpoint: mean survival time, dose: 1.0 mg/kg/injection, schedule: Q01DX Z (oral), vehicle: saline 93 % of control | endpoint: mean survival time, dose: 1.0 mg/kg/injection, schedule: Q07DX Z (ip), vehicle: saline 103 % of control | endpoint: mean survival time, dose: 1.8 mg/kg/injection, schedule: Q01DX009 (ip), vehicle: saline 94 % of control | endpoint: mean survival time, dose: 2.5 mg/kg/injection, schedule: Q07DX Z (ip), vehicle: saline 97 % of control | endpoint: mean survival time, dose: 3.2 mg/kg/injection, schedule: Q01DX001 (ip), vehicle: saline 95 % of control | endpoint: mean survival time, dose: 3.5 mg/kg/injection, schedule: Q01DX009 (ip), vehicle: saline 100 % of control and 104 % of control | endpoint: mean survival time, dose: 3.5 mg/kg/injection, schedule: Q03HX032 (ip), vehicle: saline 110 % of control | endpoint: mean survival time, dose: 3.5 mg/kg/injection, schedule: Q## X032 (ip), vehicle: saline 110 % of control | endpoint: mean survival time, dose: 4.3 mg/kg/injection, schedule: Q01DX Z (ip), vehicle: saline 98 % of control | endpoint: mean survival time, dose: 5.0 mg/kg/injection, schedule: Q01DX Z (ip), vehicle: methylcellulose (MC) 105 % of control | endpoint: mean survival time, dose: 5.0 mg/kg/injection, schedule: Q07DX Z (ip), vehicle: saline 97 % of control | endpoint: mean survival time, dose: 5.36 mg/kg/injection, schedule: Q03HX032 (ip), vehicle: saline 102 % of control | endpoint: mean survival time, dose: 5.36 mg/kg/injection, schedule: Q## X032 (ip), vehicle: saline 102 % of control | endpoint: mean survival time, dose: 5.6 mg/kg/injection, schedule: Q13HX018 (ip), vehicle: saline 98 % of control | endpoint: mean survival time, dose: 6.0 mg/kg/injection, schedule: Q01DX Z (oral), vehicle: saline 108 % of control | endpoint: mean survival time, dose: 6.0 mg/kg/injection, schedule: Q03DX Z (ip), vehicle: saline 109 % of control | endpoint: mean survival time, dose: 6.25 mg/kg/injection, schedule: Q01DX009 (ip), vehicle: saline 104 % of control and 107 % of control | endpoint: mean survival time, dose: 6.25 mg/kg/injection, schedule: Q01DX Z (ip), vehicle: saline 102 % of control | endpoint: mean survival time, dose: 6.3 mg/kg/injection, schedule: Q01DX001 (ip), vehicle: saline 94 % of control | endpoint: mean survival time, dose: 7.13 mg/kg/injection, schedule: Q01DX Z (ip), vehicle: carboxymethylcellulose (CMC) 109 % of control | endpoint: mean survival time, dose: 7.5 mg/kg/injection, schedule: Q01DX009 (ip), vehicle: saline 110 % of control | endpoint: mean survival time, dose: 7.5 mg/kg/injection, schedule: Q01DX Z (ip), vehicle: saline 110 % of control | endpoint: mean survival time, dose: 7.5 mg/kg/injection, schedule: Q04DX002 (ip), vehicle: saline 94 % of control and 111 % of control | endpoint: mean survival time, dose: 8.5 mg/kg/injection, schedule: Q01DX Z (ip), vehicle: saline 110 % of control | endpoint: mean survival time, dose: 9.4 mg/kg/injection, schedule: Q01DX001 (ip), vehicle: water 103 % of control | endpoint: mean survival time, dose: 9.9 mg/kg/injection, schedule: Q01DX010 (ip), vehicle: saline 104 % of control | endpoint: mean survival time, dose: 10.0 mg/kg/injection, schedule: Q01DX Z (ip), vehicle: methylcellulose (MC) 104 % of control | endpoint: mean survival time, dose: 10.0 mg/kg/injection, schedule: Q07DX Z (ip), vehicle: saline 102 % of control | endpoint: mean survival time, dose: 11.25 mg/kg/injection, schedule: Q01DX001 (ip), vehicle: saline 98 % of control and 105 % of control | endpoint: mean survival time, dose: 11.3 mg/kg/injection, schedule: Q01DX Z (ip), vehicle: saline 113 % of control | endpoint: mean survival time, dose: 11.3 mg/kg/injection, schedule: Q## X Z (ip), vehicle: saline 110 % of control | endpoint: mean survival time, dose: 12.0 mg/kg/injection, schedule: Q01DX001 (ip), vehicle: saline 94 % of control and 111 % of control | endpoint: mean survival time, dose: 12.0 mg/kg/injection, schedule: Q01DX Z (im), vehicle: saline 97 % of control | endpoint: mean survival time, dose: 12.0 mg/kg/injection, schedule: Q01DX Z (oral), vehicle: saline 109 % of control | endpoint: mean survival time, dose: 12.0 mg/kg/injection, schedule: Q02DX010 (ip), vehicle: saline 111 % of control | endpoint: mean survival time, dose: 12.0 mg/kg/injection, schedule: Q03DX Z (ip), vehicle: saline 107 % of control | endpoint: mean survival time, dose: 12.5 mg/kg/injection, schedule: Q01DX001 (ip), vehicle: saline 96 % of control | endpoint: mean survival time, dose: 12.5 mg/kg/injection, schedule: Q01DX009 (ip), vehicle: saline 110 % of control | endpoint: mean survival time, dose: 12.5 mg/kg/injection, schedule: Q01DX Z (ip), vehicle: carboxymethylcellulose (CMC) 101 % of control | endpoint: mean survival time, dose: 12.6 mg/kg/injection, schedule: Q01DX009 (ip), vehicle: saline 110 % of control | endpoint: mean survival time, dose: 12.6 mg/kg/injection, schedule: Q01DX Z (ip), vehicle: saline 110 % of control | endpoint: mean survival time, dose: 15.0 mg/kg/injection, schedule: Q01DX Z (ip), vehicle: methylcellulose (MC) 100 % of control | endpoint: mean survival time, dose: 15.0 mg/kg/injection, schedule: Q04DX002 (ip), vehicle: saline 103 % of control | endpoint: mean survival time, dose: 15.0 mg/kg/injection, schedule: Q07DX Z (ip), vehicle: saline 107 % of control | endpoint: mean survival time, dose: 18.75 mg/kg/injection, schedule: Q01DX001 (ip), vehicle: water 103 % of control | endpoint: mean survival time, dose: 18.76 mg/kg/injection, schedule: Q02DX010 (ip), vehicle: saline 112 % of control | endpoint: mean survival time, dose: 19.0 mg/kg/injection, schedule: Q02DX010 (ip), vehicle: saline 110 % of control | endpoint: mean survival time, dose: 20.0 mg/kg/injection, schedule: Q01DX Z (ip), vehicle: methylcellulose (MC) 98 % of control | endpoint: mean survival time, dose: 22.5 mg/kg/injection, schedule: Q01DX001 (ip), vehicle: saline 106 % of control and 109 % of control | endpoint: mean survival time, dose: 22.5 mg/kg/injection, schedule: Q## X Z (ip), vehicle: saline 105 % of control | endpoint: mean survival time, dose: 25.0 mg/kg/injection, schedule: Q01DX006 (iv), vehicle: saline 103 % of control | endpoint: mean survival time, dose: 25.0 mg/kg/injection, schedule: Q01DX Z (im), vehicle: saline 113 % of control | endpoint: mean survival time, dose: 25.0 mg/kg/injection, schedule: Q04DX003 (ip), vehicle: saline 104 % of control | endpoint: mean survival time, dose: 28.5 mg/kg/injection, schedule: Q01DX Z (ip), vehicle: carboxymethylcellulose (CMC) 114 % of control | endpoint: mean survival time, dose: 37.0 mg/kg/injection, schedule: Q01DX001 (ip), vehicle: water 114 % of control | endpoint: mean survival time, dose: 37.5 mg/kg/injection, schedule: Q01DX001 (ip), vehicle: saline with Tween-80 112 % of control | endpoint: mean survival time, dose: 37.5 mg/kg/injection, schedule: Q01DX001 (ip), vehicle: water 114 % of control | endpoint: mean survival time, dose: 45.0 mg/kg/injection, schedule: Q13HX018 (ip), vehicle: saline 107 % of control | endpoint: mean survival time, dose: 45.0 mg/kg/injection, schedule: Q## X Z (ip), vehicle: saline 105 % of control | endpoint: mean survival time, dose: 50.0 mg/kg/injection, schedule: Q01DX Z (ip), vehicle: methylcellulose (MC) 112 % of control | endpoint: mean survival time, dose: 67.5 mg/kg/injection, schedule: Q## X006 (ip), vehicle: saline 100 % of control | endpoint: mean survival time, dose: 86.0 mg/kg/injection, schedule: Q01DX001 (ip), vehicle: saline 112 % of control | endpoint: mean survival time, dose: 90.0 mg/kg/injection, schedule: Q01DX009 (ip), vehicle: saline 107 % of control | endpoint: mean survival time, dose: 90.0 mg/kg/injection, schedule: Q01DX Z (ip), vehicle: saline 98 % of control | endpoint: mean survival time, dose: 90.0 mg/kg/injection, schedule: Q02DX010 (ip), vehicle: carboxymethylcellulose (CMC) 105 % of control | endpoint: mean survival time, dose: 97.0 mg/kg/injection, schedule: Q02DX010 (ip), vehicle: carboxymethylcellulose (CMC) 107 % of control | endpoint: mean survival time, dose: 97.0 mg/kg/injection, schedule: Q02DX010 (ip), vehicle: other 98 % of control | endpoint: mean survival time, dose: 100.0 mg/kg/injection, schedule: Q01DX Z (ip), vehicle: methylcellulose (MC) 108 % of control | endpoint: mean survival time, dose: 100.0 mg/kg/injection, schedule: Q01DX Z (oral), vehicle: saline 107 % of control | endpoint: mean survival time, dose: 135.0 mg/kg/injection, schedule: Q02DX010 (ip), vehicle: saline 111 % of control | endpoint: mean survival time, dose: 180.0 mg/kg/injection, schedule: Q01DX009 (ip), vehicle: saline 96 % of control | endpoint: mean survival time, dose: 180.0 mg/kg/injection, schedule: Q01DX010 (ip), vehicle: saline 102 % of control | endpoint: mean survival time, dose: 200.0 mg/kg/injection, schedule: Q01DX009 (ip), vehicle: saline 93 % of control | endpoint: mean survival time, dose: 200.0 mg/kg/injection, schedule: Q01DX Z (ip), vehicle: saline 100 % of control | endpoint: mean survival time, dose: 320.0 mg/kg/injection, schedule: Q04DX003 (ip), vehicle: saline 111 % of control | endpoint: mean survival time, dose: 360.0 mg/kg/injection, schedule: Q01DX001 (ip), vehicle: saline 113 % of control | endpoint: mean survival time, dose: 400.0 mg/kg/injection, schedule: Q04DX002 (ip), vehicle: saline 100 % of control | endpoint: mean survival time, dose: 468.0 mg/kg/injection, schedule: Q04DX002 (ip), vehicle: saline 111 % of control | endpoint: mean survival time, dose: 900.0 mg/kg/injection, schedule: Q01DX001 (ip), vehicle: saline 102 % of control | endpoint: median survival time, dose: 5.0 mg/kg/injection, schedule: Q01DX009 (ip), vehicle: saline 101 % of control and 110 % of control | endpoint: median survival time, dose: 10.0 mg/kg/injection, schedule: Q01DX001 (ip), vehicle: saline 99 % of control and 100 % of control | endpoint: median survival time, dose: 20.0 mg/kg/injection, schedule: Q01DX001 (ip), vehicle: saline 106 % of control | endpoint: median survival time, dose: 50.0 mg/kg/injection, schedule: Q08DX003 (ip), vehicle: saline 95 % of control and 97 % of control | endpoint: median survival time, dose: 90.0 mg/kg/injection, schedule: Q01DX009 (ip), vehicle: saline 105 % of control and 112 % of control | endpoint: median survival time, dose: 180.0 mg/kg/injection, schedule: Q01DX009 (ip), vehicle: saline 93 % of control
